In ChEMBL document CHEMBL1201862, “PubChem BioAssay data set” (2004):
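Exposure lasted 48 hours, with cells grown in 96-well plates and compounds tested at five concentrations. At the GI50, growth is halved.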 Calls of active or inactive are those of the source. No stated cut-off is given here; in the data, active = GI50 up to about 1.1 µM and inactive = higher.

Assays:
Assay in all cases: growth of human tumour cells (NCI), 48 h
CCRF-CEM = test system: CCRF-CEM
RXF 393 = test system: RXF 393
SF-295 = test system: SF-295
MDA-MB-435 = test system: MDA-MB-435
CAKI-1 = test system: CAKI-1
SNB-75 = test system: SNB-75
786-0 = test system: 786-0
RPMI-8226 = test system: RPMI-8226
A549 = test system: A549
ACHN = test system: ACHN
A498 = test system: A498
MDA-N = test system: MDA-N
TK-10 = test system: TK-10
NCI-H522 = test system: NCI-H522
SK-OV-3 = test system: SK-OV-3
HCC 2998 = test system: HCC 2998
K562 = test system: K562
NCI-H460 = test system: NCI-H460
DU-145 = test system: DU-145
HOP-92 = test system: HOP-92

Structure (SMILES)	GI50 (CCRF-CEM)	GI50 (RXF 393)	GI50 (SF-295)	GI50 (MDA-MB-435)	GI50 (CAKI-1)	GI50 (SNB-75)	GI50 (786-0)	GI50 (RPMI-8226)	GI50 (A549)	GI50 (ACHN)	GI50 (A498)	GI50 (MDA-N)	GI50 (TK-10)	GI50 (NCI-H522)	GI50 (SK-OV-3)	GI50 (HCC 2998)	GI50 (K562)	GI50 (NCI-H460)	GI50 (DU-145)	GI50 (HOP-92)
CC1(C)CCC2=C(O1)/C(=N\Nc1ccc(F)cc1)c1ccccc1C2=O	11.8 µM (inactive)	35.2 µM (inactive)	20.7 µM (inactive)	18.1 µM (inactive)	40.4 µM (inactive)	22.2 µM (inactive)	32.4 µM (inactive)	40.4 µM (inactive)	16.1 µM (inactive)	38.5 µM (inactive)	30.3 µM (inactive)	17.7 µM (inactive)	38.9 µM (inactive)	61.9 µM (inactive)	54.7 µM (inactive)	21.9 µM (inactive)	49.5 µM (inactive)	23.9 µM (inactive)	18.4 µM (inactive)	39.5 µM (inactive)
COc1cccc(/C=C2\CCC(CN(C)C)C2=O)c1 (stereo not drawn)	1.08 µM (active)	6.07 µM (inactive)	16.6 µM (inactive)	2.61 µM (inactive)	6.76 µM (inactive)	17 µM (inactive)	3.5 µM (inactive)	0.995 µM (active)	19 µM (inactive)	11.8 µM (inactive)	16.3 µM (inactive)	4.73 µM (inactive)	10.2 µM (inactive)	2.56 µM (inactive)	15.7 µM (inactive)	10.8 µM (inactive)	1.1 µM (active)	16.2 µM (inactive)	2.74 µM (inactive)	13.7 µM (inactive)
Cc1occc1C(=S)Nc1ccc(Cl)c(/C=N/OC(C)(C)C)c1	17.8 µM (inactive)	13.4 µM (inactive)	13.3 µM (inactive)	16.6 µM (inactive)	17.2 µM (inactive)	21.8 µM (inactive)	18.7 µM (inactive)	16.7 µM (inactive)	16.6 µM (inactive)	14.6 µM (inactive)	20.4 µM (inactive)	18.9 µM (inactive)	21.9 µM (inactive)	11.7 µM (inactive)	23 µM (inactive)	16.6 µM (inactive)	31.6 µM (inactive)	14.7 µM (inactive)	19.7 µM (inactive)	13 µM (inactive)
CC(=O)OC1CCC2(C)C(CCC3C2CC(=O)C2(C)C3CC(N3CC3)C2C(C)=O)C1 (stereo not drawn)		16.5 µM (inactive)	5.71 µM (inactive)	17.9 µM (inactive)	16.1 µM (inactive)	17.2 µM (inactive)	18.6 µM (inactive)	18 µM (inactive)	27.4 µM (inactive)	13.8 µM (inactive)	19.6 µM (inactive)	21.8 µM (inactive)	19.6 µM (inactive)	12.2 µM (inactive)		15.4 µM (inactive)	15.2 µM (inactive)	12.4 µM (inactive)	32.6 µM (inactive)	18.4 µM (inactive)
CN(C)C(=S)Oc1ccc2ccc(=O)oc2c1		> 100 µM (inactive)	> 100 µM (inactive)	> 100 µM (inactive)	> 100 µM (inactive)	> 100 µM (inactive)	> 100 µM (inactive)	> 100 µM (inactive)	> 100 µM (inactive)	> 100 µM (inactive)	> 100 µM (inactive)	> 100 µM (inactive)	> 100 µM (inactive)	> 100 µM (inactive)	> 100 µM (inactive)	> 100 µM (inactive)		> 100 µM (inactive)	> 100 µM (inactive)	> 100 µM (inactive)
COC1(OC)CCCCCCCCC(OC)(OC)CCCCCCCC1		> 100 µM (inactive)	> 100 µM (inactive)	> 100 µM (inactive)	> 100 µM (inactive)	> 100 µM (inactive)	> 100 µM (inactive)		> 100 µM (inactive)	> 100 µM (inactive)	> 100 µM (inactive)	> 100 µM (inactive)	> 100 µM (inactive)	> 100 µM (inactive)	> 100 µM (inactive)	> 100 µM (inactive)	> 100 µM (inactive)	> 100 µM (inactive)	> 100 µM (inactive)	> 100 µM (inactive)
O=S(=O)(O)c1cccc2cccc(/N=N/c3c(O)ccc4ccccc34)c12	> 100 µM (inactive)	> 100 µM (inactive)	> 100 µM (inactive)	> 100 µM (inactive)	> 100 µM (inactive)	> 100 µM (inactive)	> 100 µM (inactive)		> 100 µM (inactive)	> 100 µM (inactive)	> 100 µM (inactive)	> 100 µM (inactive)	> 100 µM (inactive)	> 100 µM (inactive)	> 100 µM (inactive)	> 100 µM (inactive)	> 100 µM (inactive)	> 100 µM (inactive)	> 100 µM (inactive)	> 100 µM (inactive)
